Data on 15 compounds can be found in patent US11932628B2, “Selective small molecule peptidomimetic melanocortin ligands” (REGENTS OF THE UNIVERSITY OF MINNESOTA, priority 2021, dated 2024).

The target in test [1] is T1, mMC4R (Mus musculus, UniProt P56450). Description: cAMP based functional bioassay (CRE/β-galactosidase reporter), agonist activity at mMC4R. The conditions noted are these: for mMC4R Activity @ 10 μM (relative activity, percent) / mMC4R Activity @ 10 μM (class): reported where receptor not activated to full activity.
Experimental: (§1) The compounds were evaluated using a whole cell assay.
(§2) Compounds were dissolved in DMSO at a stock concentration of 10^−2 M and stored at −20° C. until assayed. HEK-293 cells stably expressing the selected melanocortin receptors were transiently transfected with 4 μg of CRE/β-galactosidase reporter gene. Briefly, 5000-15000 post transfection cells were plated into collagen treated 96-well plates (Nunc) and incubated overnight. […] The assay media was aspirated, and 50 μL of lysis buffer (250 mM Tris-HCl pH=8.0 and 0.1% Triton X-100) was added. The plates were stored at −80° C. overnight. The plates containing the cell lysates were thawed the following day. Aliquots of 10 μL were taken from each well and transferred to another 96-well plate for relative protein determination. To the cell lysate plates, 40 μL of phosphate-buffered saline with 0.5% BSA was added to each well. Subsequently, 150 μL of substrate buffer (60 mM sodium phosphate, 1 mM MgCl2, 10 mM KCl, 5 mM β-mercaptoethanol, 2 mg/mL ONPG) was added to each well and the plates were incubated at 37° C. The sample absorbance, OD405, was measured using a 96-well plate reader (Molecular Devices). The relative protein was determined by adding 200 μL of 1:5 dilution BioRad G250 protein dye:water to the 10 μL of cell lysate sample taken previously, and the OD595 was measured on a 96-well plate reader (Molecular Devices). Data points were normalized to forskolin and the relative protein content were used as positive controls. The EC50 values represent the mean of three or more independent experiments. The EC50 estimates, and their associated standard errors of the mean, were determined by fitting the data to a nonlinear least-squares analysis using the PRISM program (v4.0, GraphPad Inc.).
(§3) The results are tabulated in the form of EC50 values. In the case where the particular receptor was not activated to full activity at 100,000 nM, then the relative activity was reported.
A further test addresses mMC1R (Mus musculus, UniProt Q01727). In words: cAMP based functional bioassay (CRE/β-galactosidase reporter), agonist activity at mMC1R. The conditions noted are these: for mMC1R Activity @ 10 μM (class) / mMC1R Activity @ 10 μM (relative activity, percent): reported where receptor not activated to full activity.
Test [2] addresses T1, mMC4R. In words: Schild analysis of antagonist activity at mMC4R.
Experimental: The antagonist activity may also be reported as a Ki value, which is the inverse Log of pA2. […] Compounds were dissolved in DMSO at a stock concentration of 10^−2 M and stored at −20° C. until assayed. HEK-293 cells stably expressing the selected melanocortin receptors were transiently transfected with 4 μg of CRE/β-galactosidase reporter gene. Briefly, 5000-15000 post transfection cells were plated into collagen treated 96-well plates (Nunc) and incubated overnight. […] The assay media was aspirated, and 50 μL of lysis buffer (250 mM Tris-HCl pH=8.0 and 0.1% Triton X-100) was added. The plates were stored at −80° C. overnight. The plates containing the cell lysates were thawed the following day. Aliquots of 10 μL were taken from each well and transferred to another 96-well plate for relative protein determination. To the cell lysate plates, 40 μL of phosphate-buffered saline with 0.5% BSA was added to each well. Subsequently, 150 μL of substrate buffer (60 mM sodium phosphate, 1 mM MgCl2, 10 mM KCl, 5 mM β-mercaptoethanol, 2 mg/mL ONPG) was added to each well and the plates were incubated at 37° C. The sample absorbance, OD405, was measured using a 96-well plate reader (Molecular Devices). The relative protein was determined by adding 200 μL of 1:5 dilution BioRad G250 protein dye:water to the 10 μL of cell lysate sample taken previously, and the OD595 was measured on a 96-well plate reader (Molecular Devices). Data points were normalized to forskolin and the relative protein content were used as positive controls. The EC50 values represent the mean of three or more independent experiments. The EC50 estimates, and their associated standard errors of the mean, were determined by fitting the data to a nonlinear least-squares analysis using the PRISM program (v4.0, GraphPad Inc.).
The reported values are on a log scale. In order to put them into perspective, their approximate binding disassociation constants, Ki values, can be calculated through the following relationship pA2=−Log10 (Ki).
The next test has as its target mMC3R (Mus musculus, UniProt P33033). In words: cAMP based functional bioassay (CRE/β-galactosidase reporter), agonist activity at mMC3R. The conditions noted are these: for mMC3R Activity @ 10 μM (class) / mMC3R Activity @ 10 μM (relative activity, percent): reported where receptor not activated to full activity.
For the next test, the target named is mMC5R (Mus musculus, UniProt P41149). Description: cAMP based functional bioassay (CRE/β-galactosidase reporter), agonist activity at mMC5R.
Chain of mMC5R (P41149 whole entry): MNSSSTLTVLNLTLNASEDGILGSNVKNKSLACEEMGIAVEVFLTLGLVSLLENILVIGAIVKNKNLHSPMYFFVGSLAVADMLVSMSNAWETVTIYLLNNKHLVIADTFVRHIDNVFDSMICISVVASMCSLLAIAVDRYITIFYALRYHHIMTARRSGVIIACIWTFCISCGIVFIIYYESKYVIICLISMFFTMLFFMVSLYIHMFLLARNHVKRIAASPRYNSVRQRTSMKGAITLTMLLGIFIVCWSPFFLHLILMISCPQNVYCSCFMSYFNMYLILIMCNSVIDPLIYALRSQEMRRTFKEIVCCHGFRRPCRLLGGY

Chain of mMC3R (P33033 whole entry): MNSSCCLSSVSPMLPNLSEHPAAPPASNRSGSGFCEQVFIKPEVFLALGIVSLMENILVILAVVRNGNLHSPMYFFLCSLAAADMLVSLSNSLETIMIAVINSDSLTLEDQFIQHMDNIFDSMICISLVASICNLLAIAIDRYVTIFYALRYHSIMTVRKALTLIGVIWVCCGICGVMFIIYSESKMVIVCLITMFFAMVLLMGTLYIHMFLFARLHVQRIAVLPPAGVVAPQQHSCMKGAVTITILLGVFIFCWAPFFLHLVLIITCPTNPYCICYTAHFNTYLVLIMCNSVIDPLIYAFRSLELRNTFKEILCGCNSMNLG
Chain of mMC1R (Q01727 whole entry): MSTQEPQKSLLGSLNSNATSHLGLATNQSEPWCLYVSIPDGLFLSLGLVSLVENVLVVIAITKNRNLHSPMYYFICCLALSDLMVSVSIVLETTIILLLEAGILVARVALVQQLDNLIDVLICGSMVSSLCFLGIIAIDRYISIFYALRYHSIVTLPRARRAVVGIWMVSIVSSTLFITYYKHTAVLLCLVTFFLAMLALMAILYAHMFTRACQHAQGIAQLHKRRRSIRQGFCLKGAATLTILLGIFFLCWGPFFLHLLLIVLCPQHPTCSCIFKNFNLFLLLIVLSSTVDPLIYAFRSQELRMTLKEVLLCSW
T1 sequence (P56450 whole entry): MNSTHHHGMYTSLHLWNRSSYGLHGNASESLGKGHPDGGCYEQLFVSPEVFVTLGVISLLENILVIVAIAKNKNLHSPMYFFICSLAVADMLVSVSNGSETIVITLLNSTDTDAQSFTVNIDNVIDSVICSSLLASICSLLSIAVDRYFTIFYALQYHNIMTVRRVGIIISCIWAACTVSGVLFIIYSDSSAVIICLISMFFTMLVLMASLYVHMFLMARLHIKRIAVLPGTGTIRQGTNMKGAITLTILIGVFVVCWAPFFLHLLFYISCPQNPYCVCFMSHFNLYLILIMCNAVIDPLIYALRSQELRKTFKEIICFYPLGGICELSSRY
Experimental for mMC1R: as §1, §2, §3
Experimental for mMC3R: as §1, §2, §3
Experimental for mMC5R: as §1, §2, §3

The EC50 is the concentration at which the effect is half-maximal. Higher therefore signals weaker potency. In general, Kb refers to the affinity of an antagonist, worked out from how it opposes an agonist. A low value points to a more potent antagonist. Take `CC(C)C[C@@H]1CNC(=N)N1C[C@@H]1CCCN1C[C@@H](CC1CCCCC1)N1C[C@@H]([C@@H](C)O)N(CC23CC4CC(CC(C4)C2)C3)C1=N` [TPI 2509-4, (R)-1-((S)-3-(adamantan-1-ylmethyl)-1-((R)-1-cyclohexyl-3-((S)-2-(((R)-2-imino-5-isobutylimidazolidin-1-yl)methyl)pyrrolidin-1-yl)propan-2-yl)-2-iminoimidazolidin-4-yl)ethanol]: the “mMC4R Activity @ 10 μM (relative activity, percent)” value at mMC4R [1] amounted to 55%. Besides, the EC50 at mMC1R came out at 330 ± 110 nM; on mMC3R, 240 ± 40 nM; on mMC5R, 340 ± 140 nM. For the same compound, the Kb at mMC4R [2] stood at 3160 nM.
The like results for `CC(C)C[C@@H]1CNC(=N)N1C[C@@H]1CCCN1C[C@@H](CC1CCCCC1)N1C[C@@H]([C@@H](C)O)N(CC2CCC(C(C)(C)C)CC2)C1=N` (stereo partly drawn) [TPI 2509-5, (R)-1-((S)-3-((4-(tert-butyl)cyclohexyl)methyl)-1-((R)-1-cyclohexyl-3-((S)-2-(((R)-2-imino-5-isobutylimidazolidin-1-yl)methyl)pyrrolidin-1-yl)propan-2-yl)-2-iminoimidazolidin-4-yl)ethanol] were, in that order, 45%, 300 ± 90 nM, 210 ± 50 nM, 140 ± 70 nM and 1580 nM.
Take `CC(C)C[C@@H]1CNC(=N)N1C[C@@H]1CCCN1C[C@@H](Cc1ccccc1)N1C[C@@H]([C@@H](C)O)N(CC23CC4CC(CC(C4)C2)C3)C1=N` [TPI 2509-13, (R)-1-((S)-3-(adamantan-1-ylmethyl)-2-imino-1-((R)-1-((S)-2-(((R)-2-imino-5-isobutylimidazolidin-1-yl)methyl)pyrrolidin-1-yl)-3-phenylpropan-2-yl)imidazolidin-4-yl)ethanol]: at mMC4R [1], the “mMC4R Activity @ 10 μM (class)” value is on record as “B (B: >51%)” and the “mMC4R Activity @ 10 μM (relative activity, percent)” value was determined as 58%. Also, at mMC1R, the “mMC1R Activity @ 10 μM (class)” value is listed as “B (B: >51%)” and the “mMC1R Activity @ 10 μM (relative activity, percent)” value is on record as 41%. The Kb on mMC4R [2] amounted to 2510 nM. This compound showed an EC50 on mMC3R of 360 ± 40 nM. Besides, a half-maximal effect at mMC5R (EC50) was put at 810 ± 280 nM.
Regarding `CCC[C@@H]1CN([C@H](Cc2ccccc2)CN2CCC[C@H]2CN2C(=N)NC[C@H]2CC(C)C)C(=N)N1CC12CC3CC(CC(C3)C1)C2` [TPI 2509-16, (R)-3-(adamantan-1-ylmethyl)-1-((R)-1-((S)-2-(((R)-2-imino-5-isobutylimidazolidin-1-yl)methyl)pyrrolidin-1-yl)-3-phenylpropan-2-yl)-4-propylimidazolidin-2-imine], the figures for the EC50 at mMC4R [1], at mMC1R and at mMC5R were 1330 ± 510 nM, 7000 ± 6100 nM and 610 ± 160 nM, respectively. Besides, the “mMC3R Activity @ 10 μM (class)” value at mMC3R was “B (B: >51%)”. Moreover, the “mMC3R Activity @ 10 μM (relative activity, percent)” value on mMC3R amounted to 74%.
As to `CCC[C@@H]1CN([C@H](Cc2ccccc2)CN2CCC[C@H]2CN2C(=N)NC[C@H]2CC(C)C)C(=N)N1CC1CCC(C(C)(C)C)CC1` (stereo partly drawn) [TPI 2509-17], on mMC4R [1], the “mMC4R Activity @ 10 μM (class)” value is given as “A (A: <50%)” and the “mMC4R Activity @ 10 μM (relative activity, percent)” value was determined as 28%. At mMC1R, the “mMC1R Activity @ 10 μM (class)” value is recorded as “A (A: <50%)” and the “mMC1R Activity @ 10 μM (relative activity, percent)” value is 38%. For the same compound, on mMC3R, the “mMC3R Activity @ 10 μM (class)” value is on record as “B (B: >51%)” and the “mMC3R Activity @ 10 μM (relative activity, percent)” value is on record as 83%. Also, at mMC5R, the EC50 amounted to 480 ± 170 nM.
On to `CC(C)C[C@@H]1CNC(=N)N1C[C@@H]1CCCN1C[C@@H](Cc1ccccc1)N1C[C@@H](C(C)C)N(CC23CC4CC(CC(C4)C2)C3)C1=N` [TPI 2509-19, (R)-3-(adamantan-1-ylmethyl)-1-((R)-1-((S)-2-(((R)-2-imino-5-isobutylimidazolidin-1-yl)methyl)pyrrolidin-1-yl)-3-phenylpropan-2-yl)-4-isopropylimidazolidin-2-imine], for which the values for the EC50 on mMC4R [1], on mMC1R and on mMC5R were 8200 ± 3550 nM, 15500 ± 14000 nM and 440 ± 110 nM, respectively. Further, the “mMC3R Activity @ 10 μM (class)” value at mMC3R is given as “B (B: >51%)”. Further, at mMC3R, the “mMC3R Activity @ 10 μM (relative activity, percent)” value was determined as 67%.
With `CCC[C@@H]1CN([C@H](CC2CCCCC2)CN2CCC[C@H]2CN2C(=N)NC[C@H]2C(C)C)C(=N)N1CC12CC3CC(CC(C3)C1)C2` [TPI 2509-25, (R)-3-(adamantan-1-ylmethyl)-1-((R)-1-cyclohexyl-3-((S)-2-(((R)-2-imino-5-isopropylimidazolidin-1-yl)methyl)pyrrolidin-1-yl)propan-2-yl)-4-propylimidazolidin-2-imine], at mMC4R [1], the “mMC4R Activity @ 10 μM (class)” value is “A (A: <50%)”. Besides, the “mMC4R Activity @ 10 μM (relative activity, percent)” value at mMC4R [1] worked out at 45%. For the same compound, the values for the EC50 at mMC1R, at mMC3R and at mMC5R were 550 nM, 2800 ± 1800 nM and 590 ± 180 nM, respectively.
For `CCC[C@@H]1CN([C@H](CC2CCCCC2)CN2CCC[C@H]2CN2C(=N)NC[C@H]2C(C)C)C(=N)N1CCCC(C)C` [TPI 2509-27], at mMC4R [1], the “mMC4R Activity @ 10 μM (class)” value was “A (A: <50%)” and the “mMC4R Activity @ 10 μM (relative activity, percent)” value is reported as 40%. Besides, on mMC1R, the “mMC1R Activity @ 10 μM (class)” value is given as “B (B: >51%)”. Also, the “mMC3R Activity @ 10 μM (class)” value on mMC3R is given as “B (B: >51%)”. Moreover, a half-maximal response on mMC5R (EC50) required 1040 ± 150 nM.
Turning to `CC(C)[C@@H]1CNC(=N)N1C[C@@H]1CCCN1C[C@@H](CC1CCCCC1)N1C[C@@H](C(C)C)N(CC23CC4CC(CC(C4)C2)C3)C1=N` [TPI 2509-28, (R)-3-(adamantan-1-ylmethyl)-1-((R)-1-cyclohexyl-3-((S)-2-(((R)-2-imino-5-isopropylimidazolidin-1-yl)methyl)pyrrolidin-1-yl)propan-2-yl)-4-isopropylimidazolidin-2-imine], the “mMC4R Activity @ 10 μM (class)” value at mMC4R [1] was “A (A: <50%)”. For the same compound, the “mMC4R Activity @ 10 μM (relative activity, percent)” value at mMC4R [1] came out at 40%. Also, the EC50 on mMC1R was found to be 300 ± 30 nM; at mMC3R it was 3700 ± 880 nM; at mMC5R it was 580 ± 160 nM.
For `CC(C)[C@@H]1CNC(=N)N1C[C@@H]1CCCN1C[C@@H](CC1CCCCC1)N1C[C@@H](C(C)C)N(CC2CCC(C(C)(C)C)CC2)C1=N` (stereo partly drawn) [TPI 2509-29, (R)-3-((4-(tert-butyl)cyclohexyl)methyl)-1-((R)-1-cyclohexyl-3-((S)-2-(((R)-2-imino-5-isopropylimidazolidin-1-yl)methyl)pyrrolidin-1-yl)propan-2-yl)-4-isopropylimidazolidin-2-imine] the same measures were “A (A: <50%)”, 28%, 290 ± 20 nM, 4300 ± 3300 nM and 510 ± 50 nM.
Consider `CC(C)CCCN1C(=N)N([C@H](CC2CCCCC2)CN2CCC[C@H]2CN2C(=N)NC[C@H]2C(C)C)C[C@H]1C(C)C` [TPI 2509-30, (R)-1-((R)-1-cyclohexyl-3-((S)-2-(((R)-2-imino-5-isopropylimidazolidin-1-yl)methyl)pyrrolidin-1-yl)propan-2-yl)-4-isopropyl-3-(4-methylpentyl)imidazolidin-2-imine], for which the “mMC4R Activity @ 10 μM (class)” value on mMC4R [1] was “B (B: >51%)”. Moreover, the EC50 on mMC1R turned out to be 6100 nM; at mMC5R, 1700 ± 520 nM. At mMC3R, the “mMC3R Activity @ 10 μM (class)” value is reported as “B (B: >51%)”.
For `CCC[C@@H]1CN([C@H](Cc2ccccc2)CN2CCC[C@H]2CN2C(=N)NC[C@H]2C(C)C)C(=N)N1CC12CC3CC(CC(C3)C1)C2` [TPI 2509-34, (R)-3-(adamantan-1-ylmethyl)-1-((R)-1-((S)-2-(((R)-2-imino-5-isopropylimidazolidin-1-yl)methyl)pyrrolidin-1-yl)-3-phenylpropan-2-yl)-4-propylimidazolidin-2-imine], the EC50 on mMC4R [1] amounted to 1400 ± 760 nM; at mMC1R it was 6700 ± 4700 nM; at mMC3R it was 2000 ± 850 nM; on mMC5R, 6600 ± 5740 nM.
`CCC[C@@H]1CN([C@H](Cc2ccccc2)CN2CCC[C@H]2CN2C(=N)NC[C@H]2C(C)C)C(=N)N1CC1CCC(C(C)(C)C)CC1` (stereo partly drawn) [TPI 2509-35, (R)-3-((4-(tert-butyl)cyclohexyl)methyl)-1-((R)-1-((S)-2-(((R)-2-imino-5-isopropylimidazolidin-1-yl)methyl)pyrrolidin-1-yl)-3-phenylpropan-2-yl)-4-propylimidazolidin-2-imine]: at mMC4R [1], the “mMC4R Activity @ 10 μM (class)” value was “A (A: <50%)”. Also, on mMC4R [1], the “mMC4R Activity @ 10 μM (relative activity, percent)” value was found to be 27%. Also, the EC50 was 2300 ± 1000 nM at mMC1R, 6200 ± 5400 nM at mMC3R and 940 ± 340 nM on mMC5R.
The like results for `CC(C)[C@@H]1CNC(=N)N1C[C@@H]1CCCN1C[C@@H](Cc1ccccc1)N1C[C@@H](C(C)C)N(CC23CC4CC(CC(C4)C2)C3)C1=N` [TPI 2509-37, (R)-3-(adamantan-1-ylmethyl)-1-((R)-1-((S)-2-(((R)-2-imino-5-isopropylimidazolidin-1-yl)methyl)pyrrolidin-1-yl)-3-phenylpropan-2-yl)-4-isopropylimidazolidin-2-imine] were, in that order, “B (B: >51%)”, 54%, 47800 ± 23100 nM, 4000 ± 1900 nM and 660 ± 130 nM.
`CC[C@H](C)[C@@H]1CNC(=N)N1C[C@@H]1CCCN1C[C@@H](Cc1ccccc1)N1CC(Cc2ccc(O)cc2)N(CC2CCC(C(C)(C)C)CC2)C1=N` (stereo partly drawn) [TPI 2509-40, 4-((1-((R)-1-((S)-2-(((R)-5-((S)-sec-butyl)-2-iminoimidazolidin-1-yl)methyl)pyrrolidin-1-yl)-3-phenylpropan-2-yl)-3-((4-(tert-butyl)cyclohexyl)methyl)-2-iminoimidazolidin-4-yl)methyl)phenol]: on mMC4R [1], the “mMC4R Activity @ 10 μM (class)” value is given as “A (A: <50%)” and the “mMC4R Activity @ 10 μM (relative activity, percent)” value is 23%. Further, the EC50 at mMC1R stood at 290 ± 20 nM. In addition, at mMC3R, the “mMC3R Activity @ 10 μM (class)” value is listed as “B (B: >51%)” and the “mMC3R Activity @ 10 μM (relative activity, percent)” value was found to be 65%. This compound also registered an EC50 on mMC5R of 380 ± 50 nM.
